These results are taken from ChEMBL document CHEMBL5579801, “Novel orexin receptor agonists based on arene- or pyridine-fused 1,3-dihydro-2H-imidazole-2-imines” (Bioorg Med Chem Lett, 2024).

A short description of data set [1]: Half life in mouse plasma at 5 mg/kg,iv administration. Type of data set: ADME, organism-based.
Data set [2] in a line: Tmax in mouse plasma at 5 mg/kg,iv administration. The format is ADME, organism-based.
Data set [3] is described as follows: Half life in mouse brain at 5 mg/kg,iv administration. Type of data set: ADME, organism-based.
Data set [4] is described as follows: Cmax in mouse brain at 5 mg/kg,iv administration. The format is ADME, organism-based.
A short description of data set [5]: AUClast in mouse brain at 5 mg/kg,iv administration. Type of data set: ADME, organism-based. As to conditions: in vivo.
A short description of data set [6]: AUClast in mouse plasma at 5 mg/kg,iv administration. The format is ADME, organism-based.
The nature of data set [7]: Tmax in mouse brain at 5 mg/kg,iv administration. Type of data set: ADME, organism-based.
Data set [8] deals with HEK293. The data set can be described thus: Cytotoxicity against human HEK293 cells upto 100 uM incubated for 3 days. Type of data set: toxicity, cell-based. As to conditions: hek293, 72 h, time 3 day.
A short description of data set [9]: Cmax in mouse plasma at 5 mg/kg,iv administration. Type of data set: ADME, organism-based.
For data set [10], the target named is T1, Orexin receptor type 2 (Homo sapiens, UniProt O43614).
T1 sequence (O43614 whole entry): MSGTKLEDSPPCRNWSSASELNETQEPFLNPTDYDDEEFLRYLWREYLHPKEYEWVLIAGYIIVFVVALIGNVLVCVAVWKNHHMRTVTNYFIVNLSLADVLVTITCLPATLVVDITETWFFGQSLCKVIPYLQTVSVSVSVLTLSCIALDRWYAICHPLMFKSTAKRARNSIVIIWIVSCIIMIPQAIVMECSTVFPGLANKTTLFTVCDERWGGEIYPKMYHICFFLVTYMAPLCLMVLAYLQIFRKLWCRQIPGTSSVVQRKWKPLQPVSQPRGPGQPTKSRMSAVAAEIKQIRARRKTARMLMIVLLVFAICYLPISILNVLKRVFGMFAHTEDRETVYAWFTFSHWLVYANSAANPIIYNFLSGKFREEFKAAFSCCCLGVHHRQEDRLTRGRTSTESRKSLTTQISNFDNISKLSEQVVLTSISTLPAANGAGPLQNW
Description: Agonist activity at human OX2R expressed in human HEK293 cells co-transfected with human Galphaq assessed as accumulation of inositol phosphate by scintillation counter analysis.

Data set [11] is described as follows: Ratio of AUC in mouse brain to plasma at 5 mg/kg,iv administration. As to conditions: read-out: Ratio AUC. Type of data set: ADME, organism-based.
Data set [12] in a line: Ratio of Cmax in mouse brain to plasma at 5 mg/kg,iv administration. The format is ADME, organism-based.

Consider `Cc1ccc(C[C@@H](C(=O)N2CC(C#N)C2)n2c(=N)n(C(C)c3ccc(C)cc3)c3cccnc32)cc1` (stereo not given in full), for which the half-life – broadly, the time needed for the level to fall by half in the phase considered – in [1] amounted to 40 min; in [3] it was 47 min. For the same molecule, the time to peak (Tmax) in data set [2] and in data set [7] was 10 min each time. The Cmax (in general, the maximum level reached in the sampled fluid or tissue) in [4] was determined as 218 ng/g; in data set [9] it was 651 ng/mL. Further, the AUClast in [5] was 12554 ng·min/g. The area under the curve AUC(0-t) (in general, the area under the concentration-time curve up to a stated or last time point) in data set [6] was 518 ng·h/mL. For the same molecule, the Activity entry in [8] is on record as “Non-Toxic”.
On to `Cc1ccc(C[C@@H](CNC(=O)c2ccco2)n2c(=N)n(Cc3ccc(C)cc3)c3ccccc32)cc1`, for which the EC50 – broadly, the concentration needed to bring the measured effect to its halfway point – in data set [10] is over 10 µM.
In the case of `COCCCOC[C@H](Cc1ccc(C)cc1)n1c(=N)n(Cc2ccc(C)cc2)c2ccccc21`, the EC50 in data set [10] stood at 3.63 µM.
Still for that read-out and setting: with `Cc1ccc(C[C@@H](CNC(=O)CC(F)(F)F)n2c(=N)n(Cc3ccc(C)cc3)c3ccccc32)cc1` the figure was 6.46 µM.
Still for that read-out and setting: with `Cc1ccc(C[C@@H](CNC(=O)c2cccc(C)n2)n2c(=N)n(Cc3ccc(C)cc3)c3ccccc32)cc1` the figure was over 10 µM; with `Cc1ccc(C[C@@H](CSC(C)C)n2c(=N)n(Cc3ccc(C)cc3)c3ccccc32)cc1`, 5.37 µM.
On the same count and under the same terms, the value for `Cc1ccc(C[C@@H](CNC(=O)c2ncccc2C)n2c(=N)n(Cc3ccc(C)cc3)c3ccccc32)cc1` was over 10 µM.
Take `Cc1ccc(C[C@@H](CO)n2c(=N)n(Cc3ccc(C)cc3)c3ccc(C(F)(F)F)cc32)cc1`: in data set [10], the concentration giving a half-maximal response (EC50) was over 10 µM.
Still for that read-out and setting: the value for `Cc1ccc(C[C@@H](CO)n2c(=N)n(Cc3ccc(C)cc3)c3cc(Cl)ccc32)cc1` was over 10 µM; that for `CSC[C@H](Cc1ccc(C)cc1)n1c(=N)n(Cc2ccc(C)cc2)c2ccccc21` was 2.34 µM; that for `Cc1ccc(C[C@@H](CO)n2c(=N)n(Cc3ccc(C)cc3)c3ccc(C)cc32)cc1` was over 10 µM.
The same measure, in the same setting: the value for `Cc1ccc(C[C@@H](C[S+](C)[O-])n2c(=N)n(Cc3ccc(C)cc3)c3ccccc32)cc1` (stereo not given in full) was 7.08 µM; that for `CCSC[C@H](Cc1ccc(C)cc1)n1c(=N)n(Cc2ccc(C)cc2)c2ccccc21` was 3.98 µM.
Turning to `Cc1ccc(C[C@@H](CS(C)(=O)=O)n2c(=N)n(Cc3ccc(C)cc3)c3ccccc32)cc1`, the EC50 in data set [10] was found to be 4.47 µM.
Still for that read-out and setting: the value for `Cc1ccc(C[C@@H](COCCN(C)C)n2c(=N)n(Cc3ccc(C)cc3)c3ccccc32)cc1` was 3.98 µM.
On to `Cc1ccc(C[C@@H](CNS(=O)(=O)C(F)F)n2c(=N)n(Cc3ccc(C)cc3)c3ccccc32)cc1`, for which the EC50 in [10] came out at 6.46 µM.
With `COC[C@H](Cc1ccc(C)cc1)n1c(=N)n(C(c2ccc(C)cc2)C(F)(F)F)c2ccccc21` (mixture of isomers), the EC50 in [10] came to 1.41 µM.
For `Cc1ccc(C[C@@H](CNC(=O)CO)n2c(=N)n(C(C)c3ccc(C)cc3)c3ccccc32)cc1` (mixture of isomers), the EC50 in data set [10] was 0.661 µM.
Turning to `COC[C@H](Cc1ccc(C)cc1)n1c(=N)n(C(c2ccc(C)cc2)C2CCC2)c2ccccc21` (mixture of isomers), the EC50 in data set [10] was over 10 µM.
Turning to `Cc1ccc(C[C@@H](C(=O)N2CC(C#N)C2)n2c(=N)n(C(C)c3ccc(C)cc3)c3ccccc32)cc1` (mixture of isomers), the Kp amounted to 0.48 in data set [11] and 0.24 in [12]. In addition, the half-life in data set [1] was determined as 185 min; in data set [3], 234 min. Also, the Tmax in [2] and in data set [7] was 10 min throughout. Moreover, the Cmax in data set [4] was found to be 53.2 ng/g; in data set [9] it was 225 ng/mL. The molecule also gave an AUClast in data set [5] of 8586 ng·min/g. Also, the AUC(0-t) in [6] is 295 ng·h/mL. In addition, the Activity entry in [8] is “Non-Toxic”. Further, in data set [10], the EC50 worked out at 0.661 µM.
On to `Cc1ccc(C[C@@H](CNC(=O)CO)n2c(=N)n(C(c3ccc(C)cc3)C(C)C)c3ccccc32)cc1` (mixture of isomers), for which, in data set [10], the EC50 amounted to 1.95 µM.
Still for that read-out and setting: with `Cc1ccc(C[C@@H](C(=O)N2CC3(CNC3)C2)n2c(=N)n(C(C)c3ccc(C)cc3)c3ccccc32)cc1` (mixture of isomers) the figure was over 10 µM; with `CCC(=O)NCC(Cc1ccc(C)cc1)n1c(=N)n(Cc2ccc(C)cc2)c2ccccc21` (racemic), 8.13 µM; with `Cc1ccc(CC(CNC(=O)C2CC2)n2c(=N)n(Cc3ccc(C)cc3)c3ccccc32)cc1` (racemic), 5.25 µM.
On the same count and under the same terms, with `Cc1ccc(CC(CNC=O)n2c(=N)n(Cc3ccc(C)cc3)c3ccccc32)cc1` (racemic) the figure was 2.45 µM.
The same measure, in the same setting: with `Cc1ccc(CC(CNC(=O)Cc2ccccc2)n2c(=N)n(Cc3ccc(C)cc3)c3ccccc32)cc1` (racemic) the figure was over 10 µM; with `Cc1ccc(CC(CNC(=O)CN(C)C)n2c(=N)n(Cc3ccc(C)cc3)c3ccccc32)cc1` (racemic), 3.31 µM; with `Cc1ccc(CC(CNC(=O)c2ccccc2)n2c(=N)n(Cc3ccc(C)cc3)c3ccccc32)cc1` (racemic), over 10 µM.
For the molecule `Cc1ccc(CC(CNC(=O)N(C)C)n2c(=N)n(Cc3ccc(C)cc3)c3ccccc32)cc1` (racemic), in [10], the EC50 is 4.17 µM.
Same read-out and setting: with `Cc1ccc(CC(CNC(=O)Cc2cccnc2)n2c(=N)n(Cc3ccc(C)cc3)c3ccccc32)cc1` (racemic) the figure was 4.68 µM; with `Cc1ccc(CC(CNS(=O)(=O)C(F)(F)F)n2c(=N)n(Cc3ccc(C)cc3)c3ccccc32)cc1` (racemic), over 10 µM.
The same measure, in the same setting: the value for `Cc1ccc(CC(CNC(=O)CCCO)n2c(=N)n(Cc3ccc(C)cc3)c3ccccc32)cc1` (racemic) was over 10 µM; that for `Cc1ccc(CC(CNC(=O)C(F)(F)F)n2c(=N)n(Cc3ccc(C)cc3)c3ccccc32)cc1` (racemic) was 6.61 µM.
The same measure, in the same setting: with `COC(=O)NCC(Cc1ccc(C)cc1)n1c(=N)n(Cc2ccc(C)cc2)c2ccccc21` (racemic) the figure was 1.86 µM; with `Cc1ccc(CC(CNC(=O)Cc2ncccn2)n2c(=N)n(Cc3ccc(C)cc3)c3ccccc32)cc1` (racemic), over 10 µM; with `Cc1ccc(CC(CNC(=O)CN)n2c(=N)n(Cc3ccc(C)cc3)c3ccccc32)cc1` (racemic), over 10 µM.
With `CCOC(=O)NCC(Cc1ccc(C)cc1)n1c(=N)n(Cc2ccc(C)cc2)c2ccccc21` (racemic), in [10], the EC50 was 2.69 µM.
Still for that read-out and setting: the value for `Cc1ccc(CC(CNC(=O)Cc2ccncc2)n2c(=N)n(Cc3ccc(C)cc3)c3ccccc32)cc1` (racemic) was over 10 µM.
Regarding `COC[C@H](Cc1ccc(C)cc1)n1c(=N)n(C(c2ccc(C)cc2)C2CC2)c2ccccc21` (stereo in doubt; 61b), the Kp in data set [11] is 0.66; in data set [12] it was 0.17. Besides, the half-life in data set [1] was determined as 74 min; in [3], 134 min. Also, the Tmax (usually the time from dosing to the highest level) was 10 min in [2] and 30 min in [7]. Also, the Cmax turned out to be 143 ng/g in data set [4] and 841 ng/mL in data set [9]. The AUClast in data set [5] came to 38969 ng·min/g. Besides, the AUC(0-t) in data set [6] was 986 ng·h/mL. Further, the Activity result in [8] is recorded as “Non-Toxic”. The EC50 in data set [10] amounted to 0.603 µM.
For the molecule `COC[C@H](Cc1ccc(C)cc1)n1c(=N)n(C(c2ccc(C)cc2)C2CC2)c2ccccc21` (stereo in doubt; 61c), the EC50 in data set [10] is 1.95 µM.
The same measure, in the same setting: with `COCOC[C@H](Cc1ccc(C)cc1)n1c(=N)n(C(C)c2ccc(C)cc2)c2cccnc21` (stereo in doubt; 62b) the figure was 5.75 µM.
As for `COCOC[C@H](Cc1ccc(C)cc1)n1c(=N)n(C(C)c2ccc(C)cc2)c2cccnc21` (stereo in doubt; 62c), the results for the Kp in [11] and in [12] were 2.49 and 3.32, respectively. Besides, the half-life in [1] was determined as 48 min; in data set [3], 34 min. Moreover, the time to peak (Tmax) in data set [2] and in [7] was 10 min throughout. Also, the Cmax worked out at 2460 ng/g in [4] and 741 ng/mL in [9]. Also, the AUClast in [5] amounted to 100501 ng·min/g. The AUC(0-t) in data set [6] is 673 ng·h/mL. The Activity result in data set [8] is recorded as “Non-Toxic”. In addition, the concentration for a half-maximal effect (EC50) in data set [10] came out at 0.933 µM.
In the case of `COCCOC[C@H](Cc1ccc(C)cc1)n1c(=N)n(C(C)c2ccc(C)cc2)c2cccnc21` (stereo in doubt; 63b), the EC50 in data set [10] was 4.68 µM.
Still for that read-out and setting: the value for `COCCOC[C@H](Cc1ccc(C)cc1)n1c(=N)n(C(C)c2ccc(C)cc2)c2cccnc21` (stereo in doubt; 63c) was 0.339 µM; that for `Cc1ccc(C[C@@H](CNC(=O)CO)n2c(=N)n(C(C)c3ccc(C)cc3)c3ccccc32)cc1` (stereo in doubt; 65b) was 1.51 µM.
On the same count and under the same terms, with `Cc1ccc(C[C@@H](CNC(=O)CO)n2c(=N)n(C(C)c3ccc(C)cc3)c3cccnc32)cc1` (stereo in doubt; 68b) the figure was over 10 µM.
As to `Cc1ccc(C[C@@H](CNC(=O)CO)n2c(=N)n(C(C)c3ccc(C)cc3)c3cccnc32)cc1` (stereo in doubt; 68c), the EC50 in [10] was 1.32 µM.
On the same count and under the same terms, the value for `Cc1ccc(C[C@@H](COCCC#N)n2c(=N)n(C(C)c3ccc(C)cc3)c3cccnc32)cc1` (stereo in doubt; 69b) was 5.62 µM; that for `Cc1ccc(C[C@@H](COCCC#N)n2c(=N)n(C(C)c3ccc(C)cc3)c3cccnc32)cc1` (stereo in doubt; 69c) was 0.372 µM.
